Each block holds one compound with its values, some of them ahead of it.
Columns and labels:
[1] = target: T1, 3-phosphoinositide-dependent protein kinase 1 (Homo sapiens, UniProt O15530); experiment: Inhibition of PDK1
T1 sequence (O15530 whole entry): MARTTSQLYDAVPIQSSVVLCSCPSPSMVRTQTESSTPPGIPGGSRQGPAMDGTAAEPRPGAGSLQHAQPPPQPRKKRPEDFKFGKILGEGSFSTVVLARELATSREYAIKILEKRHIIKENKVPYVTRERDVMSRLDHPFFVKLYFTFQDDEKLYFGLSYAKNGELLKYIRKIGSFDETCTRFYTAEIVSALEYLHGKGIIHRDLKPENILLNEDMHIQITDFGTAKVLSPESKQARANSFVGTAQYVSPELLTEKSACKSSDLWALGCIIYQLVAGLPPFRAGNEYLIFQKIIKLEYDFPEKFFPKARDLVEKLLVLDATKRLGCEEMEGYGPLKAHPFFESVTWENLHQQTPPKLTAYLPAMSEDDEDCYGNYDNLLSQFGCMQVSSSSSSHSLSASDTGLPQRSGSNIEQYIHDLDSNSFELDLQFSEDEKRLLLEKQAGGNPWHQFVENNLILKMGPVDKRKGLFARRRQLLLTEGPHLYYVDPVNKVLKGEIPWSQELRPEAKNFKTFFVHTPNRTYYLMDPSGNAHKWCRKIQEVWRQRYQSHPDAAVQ

[2] = Growth inhibition of M49-5 cells; assay type: functional, cell-based; settings: Homo sapiens
[3] = Inhibition of PKA; design: species or system Homo sapiens
K562 = experiment: Growth inhibition of K562 cells; assay type: functional, cell-based; settings: Homo sapiens
HCT-116 = experiment: Growth inhibition of HCT116 cells; assay type: functional, cell-based; settings: Homo sapiens
[4] = target: T2, Serine/threonine-protein kinase Sgk1 (Homo sapiens, UniProt O00141); experiment: Inhibition of SGK1
T2 sequence (O00141 whole entry): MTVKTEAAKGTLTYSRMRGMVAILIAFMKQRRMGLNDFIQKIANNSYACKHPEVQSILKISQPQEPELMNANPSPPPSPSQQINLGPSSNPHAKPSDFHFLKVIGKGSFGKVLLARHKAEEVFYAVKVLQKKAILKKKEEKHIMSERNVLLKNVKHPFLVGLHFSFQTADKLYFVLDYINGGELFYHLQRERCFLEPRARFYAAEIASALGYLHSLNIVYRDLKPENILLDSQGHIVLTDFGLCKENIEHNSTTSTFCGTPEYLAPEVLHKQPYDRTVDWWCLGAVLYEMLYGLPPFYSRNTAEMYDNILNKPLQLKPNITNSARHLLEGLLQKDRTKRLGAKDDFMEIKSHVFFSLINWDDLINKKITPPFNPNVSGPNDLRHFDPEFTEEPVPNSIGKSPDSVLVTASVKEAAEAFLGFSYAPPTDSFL

[5] = target: Ribosomal protein S6 kinase beta-1 (Homo sapiens, UniProt P23443); experiment: Inhibition of S6K
[6] = target: Cyclin-dependent kinase 4 (Homo sapiens, UniProt P11802); experiment: Inhibition of CDK4
MDA-MB-468 = experiment: Growth inhibition of MDA-MB-468 cells; assay type: functional, cell-based; settings: Homo sapiens
[7] = Growth inhibition of PC-3mm2 cells; assay type: functional, cell-based; settings: Homo sapiens, PC3MM2
SW-620 = experiment: Growth inhibition of SW620 cells; assay type: functional, cell-based; settings: Homo sapiens
[8] = Inhibition of P38; design: species or system Homo sapiens
[9] = target: Inhibitor of NF-kappa-B kinase (IKK) (Homo sapiens, UniProt O14920+O15111+Q9Y6K9); experiment: Inhibition of IKK; assay type: protein-complex assay
[10] = target: MAP kinase-activated protein kinase 2 (Homo sapiens, UniProt P49137); experiment: Inhibition of MK2
[11] = Inhibition of TPL2; design: species or system Homo sapiens
[12] = target: Proto-oncogene tyrosine-protein kinase Src (Homo sapiens, UniProt P12931); experiment: Inhibition of Src
[13] = Inhibition of MEK; design: species or system Homo sapiens
[14] = Inhibition of CAMII; design: species or system Homo sapiens
[15] = target: RAC-alpha serine/threonine-protein kinase (Homo sapiens, UniProt P31749); experiment: Inhibition of AKT
DU-145 = experiment: Growth inhibition of DU145 cells; assay type: functional, cell-based; settings: Homo sapiens

Chain of RAC-alpha serine/threonine-protein kinase (P31749 whole entry): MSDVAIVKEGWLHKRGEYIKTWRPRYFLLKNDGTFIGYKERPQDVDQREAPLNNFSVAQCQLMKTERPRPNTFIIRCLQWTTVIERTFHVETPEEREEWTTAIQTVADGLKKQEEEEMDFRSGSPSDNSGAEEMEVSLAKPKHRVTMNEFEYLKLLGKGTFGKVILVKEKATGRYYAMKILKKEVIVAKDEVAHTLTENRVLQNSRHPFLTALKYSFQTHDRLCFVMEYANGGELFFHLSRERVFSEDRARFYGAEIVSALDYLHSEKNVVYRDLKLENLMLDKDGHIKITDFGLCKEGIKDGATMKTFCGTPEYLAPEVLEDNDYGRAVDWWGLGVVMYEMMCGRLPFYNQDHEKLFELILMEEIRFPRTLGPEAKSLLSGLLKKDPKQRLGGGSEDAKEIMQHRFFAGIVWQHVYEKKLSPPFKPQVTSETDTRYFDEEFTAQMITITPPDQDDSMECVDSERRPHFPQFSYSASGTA
Chain of Proto-oncogene tyrosine-protein kinase Src (P12931 2-536 limits assumed): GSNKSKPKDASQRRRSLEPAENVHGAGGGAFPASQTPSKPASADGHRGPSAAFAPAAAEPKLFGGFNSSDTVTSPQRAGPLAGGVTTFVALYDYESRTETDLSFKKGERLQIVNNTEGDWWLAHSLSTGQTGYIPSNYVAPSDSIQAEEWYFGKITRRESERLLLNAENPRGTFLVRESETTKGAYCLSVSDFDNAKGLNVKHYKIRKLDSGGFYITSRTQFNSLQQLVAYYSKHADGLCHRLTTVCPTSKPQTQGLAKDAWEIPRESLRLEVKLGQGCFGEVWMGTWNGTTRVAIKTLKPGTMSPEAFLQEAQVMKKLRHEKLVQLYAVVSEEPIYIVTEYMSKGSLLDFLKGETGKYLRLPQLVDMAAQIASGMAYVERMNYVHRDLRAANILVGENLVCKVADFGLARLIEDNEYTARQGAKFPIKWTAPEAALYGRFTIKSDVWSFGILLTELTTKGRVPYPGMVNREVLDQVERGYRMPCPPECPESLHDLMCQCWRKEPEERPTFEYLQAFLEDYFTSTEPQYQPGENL
Chain of MAP kinase-activated protein kinase 2 (P49137 whole entry): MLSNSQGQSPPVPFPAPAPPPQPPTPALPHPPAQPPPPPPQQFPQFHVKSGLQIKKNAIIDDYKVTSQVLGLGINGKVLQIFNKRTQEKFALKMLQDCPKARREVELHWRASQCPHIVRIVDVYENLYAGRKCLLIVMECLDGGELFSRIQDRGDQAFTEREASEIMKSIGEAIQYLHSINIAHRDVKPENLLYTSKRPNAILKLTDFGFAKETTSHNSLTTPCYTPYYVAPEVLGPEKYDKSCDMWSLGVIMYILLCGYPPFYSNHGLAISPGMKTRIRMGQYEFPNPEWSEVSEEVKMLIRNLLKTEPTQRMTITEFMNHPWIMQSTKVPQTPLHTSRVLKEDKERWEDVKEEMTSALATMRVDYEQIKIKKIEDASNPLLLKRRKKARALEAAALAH
Chain of Inhibitor of NF-kappa-B kinase (IKK) (O14920 whole entry): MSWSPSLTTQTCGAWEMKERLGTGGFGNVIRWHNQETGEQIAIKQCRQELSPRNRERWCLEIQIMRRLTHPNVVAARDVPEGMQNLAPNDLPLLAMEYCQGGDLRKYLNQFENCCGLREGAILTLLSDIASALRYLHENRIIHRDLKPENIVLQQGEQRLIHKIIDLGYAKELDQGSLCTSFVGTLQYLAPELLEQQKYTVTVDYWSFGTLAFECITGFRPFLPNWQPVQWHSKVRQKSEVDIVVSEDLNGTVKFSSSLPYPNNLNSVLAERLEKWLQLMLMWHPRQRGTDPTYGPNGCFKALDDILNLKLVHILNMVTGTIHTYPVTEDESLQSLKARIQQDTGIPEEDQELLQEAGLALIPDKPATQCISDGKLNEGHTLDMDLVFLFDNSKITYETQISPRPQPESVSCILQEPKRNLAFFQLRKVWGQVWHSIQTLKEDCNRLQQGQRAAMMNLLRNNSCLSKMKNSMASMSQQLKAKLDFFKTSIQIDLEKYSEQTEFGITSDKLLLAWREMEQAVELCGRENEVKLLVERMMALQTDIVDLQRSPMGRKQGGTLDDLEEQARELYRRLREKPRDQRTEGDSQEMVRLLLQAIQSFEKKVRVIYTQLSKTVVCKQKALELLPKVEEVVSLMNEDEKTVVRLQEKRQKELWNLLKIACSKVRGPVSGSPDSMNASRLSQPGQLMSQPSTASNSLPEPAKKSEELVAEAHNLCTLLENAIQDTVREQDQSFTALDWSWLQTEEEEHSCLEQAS
Chain of Inhibitor of NF-kappa-B kinase (IKK) (O15111 whole entry): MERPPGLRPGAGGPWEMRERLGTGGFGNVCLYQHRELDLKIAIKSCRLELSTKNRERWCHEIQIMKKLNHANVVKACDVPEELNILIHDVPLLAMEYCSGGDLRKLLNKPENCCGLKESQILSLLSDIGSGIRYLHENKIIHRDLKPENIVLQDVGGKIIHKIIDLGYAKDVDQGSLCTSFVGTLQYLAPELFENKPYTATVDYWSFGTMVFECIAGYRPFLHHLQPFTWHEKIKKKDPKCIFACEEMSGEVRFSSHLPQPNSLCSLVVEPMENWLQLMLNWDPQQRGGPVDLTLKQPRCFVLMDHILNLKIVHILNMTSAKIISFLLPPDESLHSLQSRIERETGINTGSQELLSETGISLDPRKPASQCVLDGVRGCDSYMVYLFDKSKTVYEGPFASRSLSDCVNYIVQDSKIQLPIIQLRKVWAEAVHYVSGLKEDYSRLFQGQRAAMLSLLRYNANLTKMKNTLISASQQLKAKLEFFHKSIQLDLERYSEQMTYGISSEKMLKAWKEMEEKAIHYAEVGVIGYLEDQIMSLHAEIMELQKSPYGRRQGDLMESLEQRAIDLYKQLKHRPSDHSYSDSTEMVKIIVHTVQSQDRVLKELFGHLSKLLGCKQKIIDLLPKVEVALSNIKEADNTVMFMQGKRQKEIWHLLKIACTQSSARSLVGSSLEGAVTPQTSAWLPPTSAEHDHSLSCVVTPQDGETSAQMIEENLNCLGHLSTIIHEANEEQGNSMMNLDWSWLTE
Chain of Inhibitor of NF-kappa-B kinase (IKK) (Q9Y6K9 whole entry): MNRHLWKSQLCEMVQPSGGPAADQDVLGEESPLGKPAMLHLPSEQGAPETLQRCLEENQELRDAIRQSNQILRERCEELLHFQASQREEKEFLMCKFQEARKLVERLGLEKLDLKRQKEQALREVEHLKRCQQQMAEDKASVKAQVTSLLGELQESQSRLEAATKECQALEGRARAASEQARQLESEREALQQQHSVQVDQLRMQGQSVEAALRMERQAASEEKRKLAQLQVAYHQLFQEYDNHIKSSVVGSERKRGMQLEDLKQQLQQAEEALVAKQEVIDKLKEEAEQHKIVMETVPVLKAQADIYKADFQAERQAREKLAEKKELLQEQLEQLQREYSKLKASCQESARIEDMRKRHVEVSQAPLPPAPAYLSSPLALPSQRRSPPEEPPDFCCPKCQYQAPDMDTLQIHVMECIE
Chain of Cyclin-dependent kinase 4 (P11802 whole entry): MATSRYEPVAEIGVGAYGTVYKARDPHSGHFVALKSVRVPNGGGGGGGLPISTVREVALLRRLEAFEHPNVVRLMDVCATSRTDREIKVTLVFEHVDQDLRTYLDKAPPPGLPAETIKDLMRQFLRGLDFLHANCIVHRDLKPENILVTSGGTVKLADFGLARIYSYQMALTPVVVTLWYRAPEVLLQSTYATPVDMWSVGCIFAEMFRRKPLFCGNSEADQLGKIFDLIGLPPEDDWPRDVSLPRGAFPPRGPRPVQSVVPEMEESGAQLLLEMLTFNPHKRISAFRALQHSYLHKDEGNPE
Chain of Ribosomal protein S6 kinase beta-1 (P23443 whole entry): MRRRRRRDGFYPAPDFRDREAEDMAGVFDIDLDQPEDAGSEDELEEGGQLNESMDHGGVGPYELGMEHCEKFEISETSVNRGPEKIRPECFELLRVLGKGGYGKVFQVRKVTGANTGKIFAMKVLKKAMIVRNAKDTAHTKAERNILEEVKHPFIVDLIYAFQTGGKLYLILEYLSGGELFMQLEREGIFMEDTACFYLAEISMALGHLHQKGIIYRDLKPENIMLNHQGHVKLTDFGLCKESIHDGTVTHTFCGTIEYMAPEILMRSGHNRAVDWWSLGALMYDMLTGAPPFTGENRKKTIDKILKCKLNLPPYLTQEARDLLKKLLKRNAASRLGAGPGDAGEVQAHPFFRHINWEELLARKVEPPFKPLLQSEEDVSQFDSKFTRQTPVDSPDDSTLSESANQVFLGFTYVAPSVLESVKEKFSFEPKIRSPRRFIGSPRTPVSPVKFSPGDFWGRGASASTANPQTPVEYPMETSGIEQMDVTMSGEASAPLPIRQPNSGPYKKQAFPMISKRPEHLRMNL

SMILES: COc1cc2c(cc1F)ncc1c(N)nc3c(C)c(N)ccc3c12
IC50 [1]: 0.58 µM

SMILES: COc1cc2ncc3c(N)nc4c(C)c(Cl)ccc4c3c2cc1OC
IC50 [1]: 2.12 µM

SMILES: COc1cc2c(cc1NCCN(C)C)ncc1c(N)nc3c(C)c(N)ccc3c12
IC50 [1]: 2.49 µM

SMILES: COc1cc2ncc3c(N)nc4c(C)c(N)ccc4c3c2cc1OC
IC50 [2]: 0.35 µM
IC50 [3]: > 10 µM
IC50 (K562): 0.48 µM
IC50 (HCT-116): 3.6 µM
IC50 [4]: > 10 µM
IC50 [5]: > 10 µM
IC50 [6]: > 10 µM
IC50 (MDA-MB-468): 1.55 µM
IC50 [7]: 4.3 µM
IC50 (SW-620): 3.9 µM
IC50 [8]: > 10 µM
IC50 [9]: > 10 µM
IC50 [10]: > 10 µM
IC50 [11]: > 10 µM
IC50 [12]: > 10 µM
IC50 [13]: > 10 µM
IC50 [14]: > 10 µM
IC50 [15]: > 10 µM
IC50 (DU-145): 2.53 µM

SMILES: COc1cc2c(cc1OCCN1CCOCC1)ncc1c(N)nc3c(C)c(N)ccc3c12
IC50 [1]: 0.06 µM

Continued, values first:

IC50 [1]: 0.04 µM
SMILES: COc1cc2ncc3c(N)nc4c(C)c(O)ccc4c3c2cc1OC

IC50 [1]: 7.45 µM
SMILES: COc1cc2ncc3cnc4ccccc4c3c2cc1OC

IC50 [1]: 0.2 µM
SMILES: COc1cc2c(cc1OCCCN(C)C)ncc1c(N)nc3c(C)c(N)ccc3c12

Source: ChEMBL document CHEMBL1138235, “Discovery of dibenzo[c,f][2,7]naphthyridines as potent and selective 3-phosphoinositide-dependent kinase-1 inhibitors” (J Med Chem, 2007)
